How the values were obtained:
[1] = DRUGMATRIX: Purinergic P2X radioligand binding (ligand: [3H] alpha, beta-Methylene-ATP); type: cell membranes, Oryctolagus cuniculus, New Zealand albino, Urinary bladder, Membrane; settings: Not Active = under 50% inhibition at 10 µM
[2] = molecular target: T1, Substance-K receptor (Homo sapiens, UniProt P21452); type: cell membranes, CHO, Membrane; settings: cho; note: in other assays of this panel Not Active means under 50% inhibition at 10 µM
T1 sequence (P21452 whole entry): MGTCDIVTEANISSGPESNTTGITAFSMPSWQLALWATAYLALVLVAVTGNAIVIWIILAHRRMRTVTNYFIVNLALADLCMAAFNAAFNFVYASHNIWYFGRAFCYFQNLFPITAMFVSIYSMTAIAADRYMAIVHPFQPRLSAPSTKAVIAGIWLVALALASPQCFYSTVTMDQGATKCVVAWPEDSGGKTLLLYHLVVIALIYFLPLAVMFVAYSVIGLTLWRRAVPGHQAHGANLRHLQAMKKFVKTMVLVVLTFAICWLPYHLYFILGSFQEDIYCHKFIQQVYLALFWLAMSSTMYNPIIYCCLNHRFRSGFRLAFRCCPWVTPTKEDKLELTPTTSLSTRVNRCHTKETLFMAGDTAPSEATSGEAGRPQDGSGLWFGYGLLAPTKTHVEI

[3] = molecular target: T2, Cytochrome P450 2A6 (Homo sapiens, UniProt P11509); settings: bti-tn-5b1-4; note: in other assays of this panel Not Active means under 50% inhibition at 10 µM
T2 sequence (P11509 whole entry): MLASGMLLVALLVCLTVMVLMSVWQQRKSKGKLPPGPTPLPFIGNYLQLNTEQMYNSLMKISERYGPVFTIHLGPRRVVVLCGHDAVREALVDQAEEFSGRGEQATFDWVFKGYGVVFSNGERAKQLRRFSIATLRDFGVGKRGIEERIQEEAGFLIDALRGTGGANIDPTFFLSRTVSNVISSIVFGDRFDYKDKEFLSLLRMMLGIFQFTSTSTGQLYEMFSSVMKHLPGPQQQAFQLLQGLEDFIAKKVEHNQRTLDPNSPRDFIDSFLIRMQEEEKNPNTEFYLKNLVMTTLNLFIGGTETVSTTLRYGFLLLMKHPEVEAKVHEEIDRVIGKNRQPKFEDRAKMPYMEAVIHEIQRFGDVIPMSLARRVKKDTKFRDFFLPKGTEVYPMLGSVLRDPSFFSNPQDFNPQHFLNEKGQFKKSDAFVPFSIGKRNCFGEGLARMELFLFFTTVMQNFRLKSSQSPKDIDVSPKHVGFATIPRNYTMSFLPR

[4] = molecular target: D(1A) dopamine receptor (Homo sapiens, UniProt P21728); experiment: DRUGMATRIX: Dopamine D1 radioligand binding (ligand: [3H] SCH-23390); type: cell membranes, CHO, Membrane; settings: cho; Not Active = under 50% inhibition at 10 µM
Sequence of D(1A) dopamine receptor (P21728 whole entry): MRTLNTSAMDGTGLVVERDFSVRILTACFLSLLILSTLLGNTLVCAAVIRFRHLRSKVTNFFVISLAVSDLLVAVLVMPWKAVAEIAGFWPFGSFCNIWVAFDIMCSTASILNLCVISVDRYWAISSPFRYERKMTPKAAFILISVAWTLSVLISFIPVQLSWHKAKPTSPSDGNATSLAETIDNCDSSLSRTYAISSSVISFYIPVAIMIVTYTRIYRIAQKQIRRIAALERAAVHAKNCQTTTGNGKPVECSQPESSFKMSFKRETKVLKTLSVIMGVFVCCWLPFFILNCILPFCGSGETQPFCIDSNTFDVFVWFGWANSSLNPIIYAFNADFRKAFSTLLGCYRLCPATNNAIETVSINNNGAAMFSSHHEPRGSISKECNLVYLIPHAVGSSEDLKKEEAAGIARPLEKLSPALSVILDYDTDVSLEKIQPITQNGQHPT

[5] = molecular target: T3, Cysteinyl leukotriene receptor 1 (Homo sapiens, UniProt Q9Y271); type: cell membranes, Membrane; settings: cho-k1; note: in other assays of this panel Not Active means under 50% inhibition at 10 µM
T3 sequence (Q9Y271 whole entry): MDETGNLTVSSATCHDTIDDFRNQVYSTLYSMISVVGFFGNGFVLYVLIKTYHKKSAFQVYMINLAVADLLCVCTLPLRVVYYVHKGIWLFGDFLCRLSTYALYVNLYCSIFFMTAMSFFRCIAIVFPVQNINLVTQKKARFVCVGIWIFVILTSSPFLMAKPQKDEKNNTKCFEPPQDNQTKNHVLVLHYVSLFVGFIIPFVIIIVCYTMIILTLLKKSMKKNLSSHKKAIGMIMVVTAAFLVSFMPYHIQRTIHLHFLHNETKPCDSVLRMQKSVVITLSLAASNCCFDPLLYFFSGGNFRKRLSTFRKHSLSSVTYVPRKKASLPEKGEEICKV

[6] = molecular target: D(3) dopamine receptor (Homo sapiens, UniProt P35462); experiment: DRUGMATRIX: Dopamine D3 radioligand binding (ligand: [3H] Spiperone); type: cell membranes, CHO, Membrane
Sequence of D(3) dopamine receptor (P35462 whole entry): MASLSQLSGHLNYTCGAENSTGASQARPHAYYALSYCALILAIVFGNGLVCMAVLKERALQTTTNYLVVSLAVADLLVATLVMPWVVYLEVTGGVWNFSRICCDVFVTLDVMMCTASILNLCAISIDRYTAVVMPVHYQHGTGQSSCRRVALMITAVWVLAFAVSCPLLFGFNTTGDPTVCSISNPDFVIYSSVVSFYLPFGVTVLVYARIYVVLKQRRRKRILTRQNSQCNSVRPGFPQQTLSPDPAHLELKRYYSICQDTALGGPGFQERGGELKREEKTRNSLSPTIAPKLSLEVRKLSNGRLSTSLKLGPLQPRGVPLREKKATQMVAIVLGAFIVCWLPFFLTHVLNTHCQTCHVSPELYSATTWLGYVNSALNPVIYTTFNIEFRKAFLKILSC

[7] = molecular target: Cytochrome P450 2D6 (Homo sapiens, UniProt P10635); settings: bti-tn-5b1-4; note: in other assays of this panel Not Active means under 50% inhibition at 10 µM
Sequence of Cytochrome P450 2D6 (P10635 whole entry): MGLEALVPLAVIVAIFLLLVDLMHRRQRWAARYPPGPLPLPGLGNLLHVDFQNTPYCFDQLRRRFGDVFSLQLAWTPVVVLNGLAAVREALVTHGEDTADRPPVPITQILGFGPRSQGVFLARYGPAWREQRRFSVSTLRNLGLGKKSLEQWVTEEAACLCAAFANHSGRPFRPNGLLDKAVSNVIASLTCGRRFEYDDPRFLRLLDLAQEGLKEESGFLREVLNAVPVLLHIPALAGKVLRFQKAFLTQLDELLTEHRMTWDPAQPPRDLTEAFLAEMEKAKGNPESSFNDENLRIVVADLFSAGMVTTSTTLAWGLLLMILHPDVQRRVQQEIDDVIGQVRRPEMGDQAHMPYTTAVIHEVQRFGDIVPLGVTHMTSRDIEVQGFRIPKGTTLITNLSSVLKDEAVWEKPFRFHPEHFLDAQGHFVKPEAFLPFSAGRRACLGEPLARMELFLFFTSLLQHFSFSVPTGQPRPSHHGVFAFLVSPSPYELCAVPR

Row | Compound | IC50 [1] | Ki [1] | IC50 [2] | IC50 [3] | Ki [3] | IC50 [4] | IC50 [5] | IC50 ([6]; cho) | IC50 [7] | Ki [7] | IC50 ([6]; read-out: IC50) [nM] | Ki ([6]; read-out: Ki) [nM] | Ki [2] | Ki [4] | Ki [5] | Ki ([6]; cho)
1 | O=C(Oc1ccccc1C(=O)O)c1ccccc1O [SALSALATE] | Not Active | Not Active | Not Active | Not Active | Not Active | Not Active | Not Active | Not Active | Not Active | Not Active |  |  |  |  |  | 
2 | NC(=O)N1C(=O)/C(=C(\O)c2cccs2)c2cc(Cl)ccc21 [TENIDAP] | Not Active | Not Active | Not Active | Not Active | Not Active | Not Active | Not Active | Not Active | Not Active | Not Active |  |  |  |  |  | 
3 | O=C1C(CC[S+]([O-])c2ccccc2)C(=O)N(c2ccccc2)N1c1ccccc1 (stereo not given) [SULFINPYRAZONE] | Not Active | Not Active | Not Active | Not Active | Not Active | Not Active | Not Active | Not Active | Not Active | Not Active |  |  |  |  |  | 
4 | N#Cc1ccc(C(c2ccc(C#N)cc2)n2cncn2)cc1 [LETROZOLE] | Not Active | Not Active | Not Active | Not Active | Not Active | Not Active | Not Active | Not Active | Not Active | Not Active |  |  |  |  |  | 
5 | COc1cc2nc(N3CCN(C(=O)C4CCCO4)CC3)nc(N)c2cc1OC (stereo not given) [TERAZOSIN] | Not Active | Not Active | Not Active | Not Active | Not Active | Not Active | Not Active | Not Active | Not Active | Not Active |  |  |  |  |  | 
6 | O=C(O)c1cn(-c2ccc(F)cc2)c2cc(N3CCNCC3)c(F)cc2c1=O [SARAFLOXACIN] | Not Active | Not Active | Not Active | Not Active | Not Active | Not Active | Not Active | Not Active | Not Active | Not Active |  |  |  |  |  | 
7 | CO[C@H]1/C=C/O[C@@]2(C)Oc3c(C)c(O)c4c(O)c(c(/C=N/N5CCN(C6CCCC6)CC5)c(O)c4c3C2=O)NC(=O)/C(C)=C\C=C\[C@H](C)[C@H](O)[C@@H](C)[C@@H](O)[C@@H](C)[C@H](OC(C)=O)[C@@H]1C [RIFAPENTINE] | Not Active | Not Active | Not Active | Not Active | Not Active | Not Active | Not Active | Not Active | Not Active | Not Active |  |  |  |  |  | 
8 | CCCCOc1cc(CC2CNC(=O)N2)ccc1OC (stereo not given) [RO-201724] | Not Active | Not Active | Not Active | Not Active | Not Active | Not Active | Not Active | Not Active | Not Active | Not Active |  |  |  |  |  | 
9 | CC[C@@H](C(=O)[C@@H](C)[C@@H](O)[C@H](C)[C@@H]1O[C@@H]([C@@H](CC)C(=O)O)CC[C@@H]1C)[C@H]1O[C@]2(C=C[C@@H](O)[C@]3(CC[C@@](C)([C@H]4CC[C@](O)(CC)[C@H](C)O4)O3)O2)[C@H](C)C[C@@H]1C [SALINOMYCIN] | Not Active | Not Active | Not Active | Not Active | Not Active | Not Active | Not Active | Not Active | Not Active | Not Active |  |  |  |  |  | 
10 | CCN(CC)CCNC(=O)c1cc(S(C)(=O)=O)ccc1OC [TIAPRIDE] | Not Active | Not Active | Not Active | Not Active | Not Active | Not Active | Not Active |  | Not Active | Not Active | 1150 | 390 |  |  |  | 
11 | MANGANESE CHLORIDE ANHYDROUS | Not Active | Not Active | Not Active | Not Active | Not Active | Not Active | Not Active | Not Active | Not Active | Not Active |  |  | Not Active | Not Active | Not Active | Not Active
12 | O.O.O.O.O.O.[Cl-].[Cl-].[Sr+2] [STRONTIUM CHLORIDE HEXAHYDRATE] | Not Active | Not Active | Not Active | Not Active | Not Active | Not Active | Not Active | Not Active | Not Active | Not Active |  |  |  |  |  | 
13 | CNC1(c2ccccc2Cl)CCCCC1=O (stereo not given) [KETAMINE] | Not Active | Not Active | Not Active | Not Active | Not Active | Not Active | Not Active | Not Active | Not Active | Not Active |  |  |  |  |  | 
14 | Nc1cc(N2CCCCC2)nc(N)[n+]1[O-] [MINOXIDIL] | Not Active | Not Active | Not Active | Not Active | Not Active | Not Active | Not Active | Not Active | Not Active | Not Active |  |  |  |  |  | 
15 | COc1c2occc2cc2ccc(=O)oc12 [METHOXSALEN] | Not Active | Not Active | Not Active | Not Active | Not Active | Not Active | Not Active | Not Active | Not Active | Not Active |  |  |  |  |  | 
16 | CS(=O)(=O)c1ccc([C@@H](O)[C@@H](CO)NC(=O)C(Cl)Cl)cc1 [THIAMPHENICOL] | Not Active | Not Active | Not Active | Not Active | Not Active | Not Active | Not Active | Not Active | Not Active | Not Active |  |  |  |  |  | 
17 | CC(C)Oc1ccc2c(=O)c(-c3ccccc3)coc2c1 [IPRIFLAVONE] | Not Active | Not Active | Not Active | Not Active | Not Active | Not Active | Not Active | Not Active | Not Active | Not Active |  |  |  |  |  | 
